The target in series [1] is T1, TRKA (Homo sapiens (Human), UniProt P04629). Kind of series: Cell based DiscoveRx PathHunter antagonist assay, TRKA cell line. Conditions: read-out: TrkA cell potency. The procedure: (§1) After the Detection Reagent addition, plates are covered and incubated at room temperature for 60 minutes. […] Test compound data are expressed as percentage inhibition defined by HPE and ZPE values for each plate. Percentage inhibition in the presence of test compound is plotted against compound concentration on a log scale to determine an IC50 from the resultant sigmoid curve. Cell Based Assays were carried out using Cell lines from DiscoveRx utilising their PathHunter technology and reagents in an antagonist assay:
(§2) The assays are based upon DiscoveRx's proprietary Enzyme Fragment Complementation (EFC) technology. In the case of the TRK cell lines, the enzyme acceptor (EA) protein is fused to a SH2 protein and the TRK receptor of interest has been tagged with a Prolink tag.
(§3) Upon neurotrophin binding, the TRK receptor becomes phosphorylated, and the tagged SH2 protein binds.
(§4) This means that the IC50 is a good measure of affinity and should be unaffected by concentration neurotrophin stimulant.
(§5) Cryopreserved PathHunter cells are used from either in-house produced batches or bulk batches bought directly from DiscoveRx. Cryopreserved cells are resuscitated, spun 1000 rpm for 4 min to remove freezing media, and resuspended in MEM+0.5% horse serum (both Invitrogen) to 5e^5 cells/ml. The cells are then plated using a Multidrop into Greiner white tissue culture treated plates at 20 ul/well and incubated for 24 h at 37° C., 5% CO2, high humidity. On the day of the assay, the cell plates are allowed to cool to room temperature for 30 min prior to the assay.
(§6) Plates containing 1 ul of serially diluted compound, standard and HPE/ZPE are diluted 1/66 in assay buffer (PBS minus Ca^2+, minus Mg^2+ with 0.05% pluronic F127) using a Wellmate. […] The plates are left at room temperature for a further 2 hours before addition of 10 ul of the DiscoveRx PathHunter detection reagent (made up by adding 1 part Galacton Star, 5 parts Emerald II and 19 parts Cell Assay Buffer as per the manufacturer's instructions).
(§7) After reagent addition, plates are covered and incubated at room temperature for 60 minutes. Luminescence signal is read using an Envision. Test compound data are expressed as percentage inhibition defined by HPE and ZPE values for each plate. Percentage inhibition in the presence of test compound is plotted against compound concentration on a log scale to determine an […] from the resultant sigmoid curve.
Target sequence in this assay (P04629 33-796): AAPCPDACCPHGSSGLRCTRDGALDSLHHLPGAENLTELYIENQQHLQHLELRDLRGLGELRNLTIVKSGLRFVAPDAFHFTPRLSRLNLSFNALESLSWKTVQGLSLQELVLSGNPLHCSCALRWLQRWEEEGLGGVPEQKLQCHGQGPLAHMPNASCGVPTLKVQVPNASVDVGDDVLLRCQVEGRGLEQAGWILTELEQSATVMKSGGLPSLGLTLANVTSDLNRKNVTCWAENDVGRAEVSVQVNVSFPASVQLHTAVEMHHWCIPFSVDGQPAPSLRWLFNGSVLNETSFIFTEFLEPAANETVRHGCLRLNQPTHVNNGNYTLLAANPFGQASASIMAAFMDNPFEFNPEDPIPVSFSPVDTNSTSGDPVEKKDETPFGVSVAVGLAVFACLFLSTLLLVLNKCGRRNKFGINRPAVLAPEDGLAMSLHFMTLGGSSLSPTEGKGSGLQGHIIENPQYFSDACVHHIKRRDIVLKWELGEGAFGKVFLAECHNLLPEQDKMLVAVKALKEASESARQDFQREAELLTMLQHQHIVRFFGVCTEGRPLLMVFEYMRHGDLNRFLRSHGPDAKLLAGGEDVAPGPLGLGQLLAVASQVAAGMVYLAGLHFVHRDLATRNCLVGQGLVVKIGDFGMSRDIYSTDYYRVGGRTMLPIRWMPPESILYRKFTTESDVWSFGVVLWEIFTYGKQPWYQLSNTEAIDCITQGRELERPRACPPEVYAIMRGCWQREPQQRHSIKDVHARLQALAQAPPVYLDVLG

In the next series the target is MDR1 (Homo sapiens (Human), UniProt P08183). Kind of series: MDCK-MDR1 assay (in vitro brain penetration). In kind it is in vitro ADME. Conditions: human; for Papp B→A: read-out: MDCK MDR1 Papp BA; for Papp A→B: MDCK-MDR1, A to B, read-out: MDCK MDR1 Papp AB. An excerpt:
MDCK-MDR1: MDCK-MDR1 data were collected according to the method described in “Are MDCK Cells Transfected with the Human MDR1 Gene a Good Model of the Human Intestinal Mucosa?”
http://www.springerlink.com/content/qfhqlqbr4fnp3 khf/fulltext.pdf

The target in series [2] is T1, TRKA. The series is described as follows: Isolated TRK enzyme assay (HTRF KinEASE-TK), TRKA. Conditions: isolated TRKA enzyme; read-out: TrkA enzyme potency. In kind it is biochemical. (TR-FRET usually uses a lanthanide donor and a delayed reading to cut background.)
Target sequence in this assay (P04629 441-796): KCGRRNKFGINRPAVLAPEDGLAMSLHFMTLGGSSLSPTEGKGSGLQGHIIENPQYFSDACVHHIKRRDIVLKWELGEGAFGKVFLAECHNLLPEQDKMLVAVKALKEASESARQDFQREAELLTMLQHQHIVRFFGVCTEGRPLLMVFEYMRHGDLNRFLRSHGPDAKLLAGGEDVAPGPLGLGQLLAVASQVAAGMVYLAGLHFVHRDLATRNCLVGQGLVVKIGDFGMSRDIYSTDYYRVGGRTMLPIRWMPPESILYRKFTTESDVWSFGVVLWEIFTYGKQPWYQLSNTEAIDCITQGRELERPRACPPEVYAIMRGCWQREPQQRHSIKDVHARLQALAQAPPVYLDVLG
Series [3] concerns the target T2, TRKB (Homo sapiens (Human), UniProt Q16620). Kind of series: cell-based. The following applies: TrkB cell potency, TRKB PathHunter cell line. As for the experimental part:
as §1, §2, §3, §4, §5, §6, §7

Series [4] concerns the target T2, TRKB. Kind of series: biochemical.
[5] abbreviates: isolated TRKB enzyme, read-out: TrkB enzyme potency.

pIC50: −log10 of the molar value. Where two headings read alike, the source gives them in different places.

Sequence of MDR1 (P08183 whole entry): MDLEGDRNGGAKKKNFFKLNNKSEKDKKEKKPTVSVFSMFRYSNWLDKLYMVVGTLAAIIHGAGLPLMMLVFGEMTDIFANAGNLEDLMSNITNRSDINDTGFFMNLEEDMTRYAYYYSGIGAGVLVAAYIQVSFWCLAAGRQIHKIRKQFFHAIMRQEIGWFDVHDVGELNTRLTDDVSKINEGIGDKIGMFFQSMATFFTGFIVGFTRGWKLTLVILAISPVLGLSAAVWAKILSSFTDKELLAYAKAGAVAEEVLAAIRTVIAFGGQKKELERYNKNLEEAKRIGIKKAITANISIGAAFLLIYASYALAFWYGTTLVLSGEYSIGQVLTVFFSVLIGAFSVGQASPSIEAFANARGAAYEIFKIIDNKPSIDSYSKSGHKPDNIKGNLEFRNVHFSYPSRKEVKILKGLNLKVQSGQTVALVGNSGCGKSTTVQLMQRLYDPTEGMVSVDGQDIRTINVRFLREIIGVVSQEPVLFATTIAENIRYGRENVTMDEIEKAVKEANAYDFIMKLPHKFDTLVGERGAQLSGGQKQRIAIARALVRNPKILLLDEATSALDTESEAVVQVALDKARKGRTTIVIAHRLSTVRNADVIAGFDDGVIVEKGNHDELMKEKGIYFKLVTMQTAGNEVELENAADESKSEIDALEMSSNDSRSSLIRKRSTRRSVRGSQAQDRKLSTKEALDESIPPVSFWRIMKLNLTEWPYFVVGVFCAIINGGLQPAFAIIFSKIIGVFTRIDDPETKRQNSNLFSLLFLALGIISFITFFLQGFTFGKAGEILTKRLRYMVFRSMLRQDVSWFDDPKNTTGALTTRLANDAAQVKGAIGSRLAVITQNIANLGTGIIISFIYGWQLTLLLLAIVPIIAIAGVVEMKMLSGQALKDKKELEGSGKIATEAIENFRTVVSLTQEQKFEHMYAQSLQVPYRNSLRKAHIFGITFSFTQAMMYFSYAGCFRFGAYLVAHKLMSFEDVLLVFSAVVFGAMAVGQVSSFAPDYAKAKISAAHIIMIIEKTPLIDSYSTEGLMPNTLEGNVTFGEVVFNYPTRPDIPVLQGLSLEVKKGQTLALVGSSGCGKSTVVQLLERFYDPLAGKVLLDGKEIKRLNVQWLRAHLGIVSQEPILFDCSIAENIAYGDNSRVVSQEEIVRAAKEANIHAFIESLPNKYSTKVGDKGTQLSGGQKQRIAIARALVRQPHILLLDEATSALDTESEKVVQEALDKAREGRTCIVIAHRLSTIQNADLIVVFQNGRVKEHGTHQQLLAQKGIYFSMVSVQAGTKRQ
T2 sequence (Q16620 32-822 limits assumed): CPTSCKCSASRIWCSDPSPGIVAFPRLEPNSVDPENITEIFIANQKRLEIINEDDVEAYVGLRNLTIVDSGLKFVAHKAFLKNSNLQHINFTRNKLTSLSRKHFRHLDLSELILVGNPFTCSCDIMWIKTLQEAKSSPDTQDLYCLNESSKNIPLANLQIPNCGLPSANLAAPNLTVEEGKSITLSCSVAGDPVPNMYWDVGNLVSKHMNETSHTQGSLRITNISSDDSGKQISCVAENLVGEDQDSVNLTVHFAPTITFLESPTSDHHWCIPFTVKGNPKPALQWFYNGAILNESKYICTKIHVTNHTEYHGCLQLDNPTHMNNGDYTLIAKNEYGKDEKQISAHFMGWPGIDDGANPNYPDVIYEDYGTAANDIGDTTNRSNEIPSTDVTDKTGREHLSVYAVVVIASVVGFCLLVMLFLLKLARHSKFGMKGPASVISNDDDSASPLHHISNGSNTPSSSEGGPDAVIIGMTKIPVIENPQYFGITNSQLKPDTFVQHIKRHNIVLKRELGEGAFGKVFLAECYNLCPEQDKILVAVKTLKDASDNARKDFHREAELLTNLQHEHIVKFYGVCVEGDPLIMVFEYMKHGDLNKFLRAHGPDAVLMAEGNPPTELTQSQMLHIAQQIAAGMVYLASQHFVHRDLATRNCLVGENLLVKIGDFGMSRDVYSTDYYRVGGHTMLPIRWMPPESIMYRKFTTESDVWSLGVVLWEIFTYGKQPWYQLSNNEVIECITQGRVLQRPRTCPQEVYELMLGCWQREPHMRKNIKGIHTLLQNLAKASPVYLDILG

In the case of `CC(CO)n1cc(C(=O)c2cncc(NC(=O)Cc3ccc(Cl)cn3)c2)c2cnc(N)nc21` (single isomer, unassigned) [Example 35, N-(5-{[2-amino-7-(2-hydroxy-1-methylethyl)-7H-pyrrolo[2,3-d]pyrimidin-5-yl]carbonyl}pyridin-3-yl)-2-(5-chloropyridin-2-yl)acetamide], the pIC50 at TRKA [1] was 6.99; at TRKA [2], 8.05; at TRKB [3], 7.43; on TRKB [4] (setting [5]), 6.65. Further, the Papp B→A on MDR1 (MDCK-MDR1, MDCK-MDR1, B to A) is 5.3 ×10⁻⁶ cm/s. Also, the Papp A→B on MDR1 is less than 1 ×10⁻⁶ cm/s.
Take `CC(C)(C)n1cc(C(=O)c2cncc(NC(=O)Cn3cc(C4CC4)cn3)c2)c2cncnc21` [Example 7, N-{5-[(7-tert-butyl-7H-pyrrolo[2,3-d]pyrimidin-5-yl)carbonyl]pyridin-3-yl}-2-(4-cyclopropyl-1H-pyrazol-1-yl)acetamide]: the pIC50 on TRKA [1] was 8.68; at TRKA [2], 7.96; against TRKB [3], 9.10; on TRKB [4] (setting [5]), 7.39. Also, the Papp B→A on MDR1 (MDCK-MDR1, MDCK-MDR1, B to A) amounted to 20 ×10⁻⁶ cm/s. Moreover, the Papp A→B at MDR1 was found to be 5.6 ×10⁻⁶ cm/s.
Turning to `C[C@@H](CO)n1cc(C(=O)c2cncc(NC(=O)Cn3ccc(C(F)(F)F)n3)c2)c2cncnc21` [Example 12, N-[5-({7-[(1S)-2-hydroxy-1-methylethyl]-7H-pyrrolo[2,3-d]pyrimidin-5-yl}carbonyl)pyridin-3-yl]-2-[3-(trifluoromethyl)-1H-pyrazol-1-yl]acetamide], the pIC50 at TRKA [1] is 7.17; on TRKA [2], 8.04; at TRKB [3], 7.66; on TRKB [4] (setting [5]), 6.26. For the same compound, on MDR1 (MDCK-MDR1, MDCK-MDR1, B to A), the Papp B→A stood at 3.1 ×10⁻⁶ cm/s. In addition, on MDR1, the Papp A→B is less than 1 ×10⁻⁶ cm/s.
On to `C[C@@H](CO)n1cc(C(=O)c2cncc(NC(=O)Cn3cc(C(F)(F)F)nn3)c2)c2cncnc21` [Example 13, N-[5-({7-[(1S)-2-hydroxy-1-methylethyl]-7H-pyrrolo[2,3-d]pyrimidin-5-yl}carbonyl)pyridin-3-yl]-2-[4-(trifluoromethyl)-1H-1,2,3-triazol-1-yl]acetamide], for which the pIC50 on TRKA [1] is 5.95; on TRKA [2], 7.70; at TRKB [3], 6.74; on TRKB [4] (setting [5]), 6.35. On MDR1 (MDCK-MDR1, MDCK-MDR1, B to A), the Papp B→A worked out at 1 ×10⁻⁶ cm/s. At MDR1, the Papp A→B is less than 1 ×10⁻⁶ cm/s.
Regarding `C[C@@H](CO)n1cc(C(=O)c2cncc(NC(=O)Cn3nc4ccccc4n3)c2)c2cncnc21` [Example 15, 2-(2H-benzotriazol-2-yl)-N-[5-({7-[(1S)-2-hydroxy-1-methylethyl]-7H-pyrrolo[2,3-d]pyrimidin-5-yl}carbonyl)pyridin-3-yl]acetamide], the pIC50 is 6.84 at TRKA [1], 7.77 at TRKA [2], 7.40 on TRKB [3] and 6.29 at TRKB [4] (TrkB enzyme potency). The Papp A→B at MDR1 was less than 1 ×10⁻⁶ cm/s. The Papp B→A on MDR1 (MDCK-MDR1, B to A) is 15 ×10⁻⁶ cm/s.
For the compound `C[C@H](CO)n1cc(C(=O)c2cncc(NC(=O)Cc3ccc(F)cn3)c2)c2cncnc21` [Example 19, 2-(5-fluoropyridin-2-yl)-N-[5-({7-[(1R)-2-hydroxy-1-methylethyl]-7H-pyrrolo[2,3-d]pyrimidin-5-yl}carbonyl)pyridin-3-yl]acetamide], the pIC50 was 5.74 at TRKA [1], 6.60 at TRKA [2], 6.69 on TRKB [3] and 5.26 on TRKB [4] (TrkB enzyme potency). On MDR1, the Papp A→B was less than 1 ×10⁻⁶ cm/s. The Papp B→A at MDR1 (MDCK-MDR1, B to A) is 8.5 ×10⁻⁶ cm/s.
Consider `C[C@H](CO)n1cc(C(=O)c2cncc(NC(=O)Cc3ccc(C(F)(F)F)cc3)c2)c2cncnc21` [Example 20, N-[5-({7-[(1R)-2-hydroxy-1-methylethyl]-7H-pyrrolo[2,3-d]pyrimidin-5-yl}carbonyl)pyridin-3-yl]-2-[4-(trifluoromethyl)phenyl]acetamide], for which the pIC50 was 7.66 on TRKA [1], 7.85 on TRKA [2], 7.72 on TRKB [3] and 6.20 on TRKB [4] (setting [5]). Further, on MDR1 (MDCK-MDR1, MDCK-MDR1, B to A), the Papp B→A worked out at 17 ×10⁻⁶ cm/s. The Papp A→B on MDR1 was less than 1 ×10⁻⁶ cm/s.
With `CC(CO)n1cc(C(=O)c2cncc(NC(=O)Cn3cc(C4CC4)cn3)c2)c2cncnc21` (stereo not shown) [Example 25, 2-(4-Cyclopropyl-1H-pyrazol-1-yl)-N-(5-{[7-(2-hydroxy-1-methylethyl)-7H-pyrrolo[2,3-d]pyrimidin-5-yl]carbonyl}pyridin-3-yl)acetamide], the pIC50 was 7.19 on TRKA [1], 7.62 at TRKA [2], 7.72 at TRKB [3] and 6.36 at TRKB [4] (setting [5]). In addition, the Papp B→A at MDR1 (MDCK-MDR1, MDCK-MDR1, B to A) worked out at 13 ×10⁻⁶ cm/s. Besides, the Papp A→B at MDR1 is less than 1 ×10⁻⁶ cm/s.
For the compound `CC(C)(CO)n1cc(C(=O)c2cncc(NC(=O)Cc3ccc(Cl)cc3)c2)c2cncnc21` [Example 28, 2-(4-chlorophenyl)-N-(5-{[7-(2-hydroxy-1,1-dimethylethyl)-7H-pyrrolo[2,3-d]pyrimidin-5-yl]carbonyl}pyridin-3-yl)acetamide], the pIC50 at TRKA [1] is 8.57; on TRKA [2] it was 8.31; at TRKB [3], 8.72; on TRKB [4] (TrkB enzyme potency), 7.12. On MDR1, the Papp A→B was less than 1 ×10⁻⁶ cm/s. Besides, on MDR1 (MDCK-MDR1, B to A), the Papp B→A is 20 ×10⁻⁶ cm/s.
Consider `CC(C)(CO)n1cc(C(=O)c2cncc(NC(=O)Cc3ccc(Cl)cn3)c2)c2cncnc21` [Example 29, 2-(5-chloropyridin-2-yl)-N-(5-{[7-(2-hydroxy-1,1-dimethylethyl)-7H-pyrrolo[2,3-d]pyrimidin-5-yl]carbonyl}pyridin-3-yl)acetamide], for which the pIC50 on TRKA [1] was 8.24; on TRKA [2], 8.55; at TRKB [3], 8.40; on TRKB [4] (TrkB enzyme potency), 7.17. In addition, on MDR1, the Papp A→B was found to be 1.3 ×10⁻⁶ cm/s. Further, the Papp B→A on MDR1 (MDCK-MDR1, B to A) stood at 23 ×10⁻⁶ cm/s.
In the case of `CC(C)(CO)n1cc(C(=O)c2cncc(NC(=O)Cn3ccc(C(F)(F)F)n3)c2)c2cncnc21` [Example 30, N-(5-{[7-(2-hydroxy-1,1-dimethylethyl)-7H-pyrrolo[2,3-d]pyrimidin-5-yl]carbonyl}pyridin-3-yl)-2-[3-(trifluoromethyl)-1H-pyrazol-1-yl]acetamide], the pIC50 was 7.96 on TRKA [1], 8.40 at TRKA [2], 8.12 at TRKB [3] and 7.01 at TRKB [4] (TrkB enzyme potency). At MDR1, the Papp A→B is less than 1 ×10⁻⁶ cm/s. On MDR1 (MDCK-MDR1, B to A), the Papp B→A came to 15 ×10⁻⁶ cm/s.
On to `CC(C)(CO)n1cc(C(=O)c2cncc(NC(=O)Cn3cc(C4CC4)nn3)c2)c2cncnc21` [Example 31, 2-(4-cyclopropyl-1H-1,2,3-triazol-1-yl)-N-(5-{[7-(2-hydroxy-1,1-dimethylethyl)-7H-pyrrolo[2,3-d]pyrimidin-5-yl]carbonyl}pyridin-3-yl)acetamide], for which the figures for the pIC50 at TRKA [1], at TRKA [2] and against TRKB [3] were 6.40, 7.74 and 6.70, respectively. Besides, the Papp B→A at MDR1 (MDCK-MDR1, MDCK-MDR1, B to A) worked out at 2.6 ×10⁻⁶ cm/s. The Papp A→B on MDR1 is less than 1 ×10⁻⁶ cm/s.
In the case of `CC(C)(CO)n1cc(C(=O)c2cncc(NC(=O)Cn3cc(C4CC4)cn3)c2)c2cncnc21` [Example 33, 2-(4-cyclopropyl-1H-pyrazol-1-yl)-N-(5-{[7-(2-hydroxy-1,1-dimethylethyl)-7H-pyrrolo[2,3-d]pyrimidin-5-yl]carbonyl}pyridin-3-yl)acetamide], the pIC50 on TRKA [1] was 8.70; at TRKA [2], 8.24; against TRKB [3] it was 8.80; on TRKB [4] (setting [5]) it was 7.02. Further, the Papp B→A on MDR1 (MDCK-MDR1, MDCK-MDR1, B to A) was found to be 24 ×10⁻⁶ cm/s. The Papp A→B on MDR1 worked out at 1 ×10⁻⁶ cm/s.
With `CC(C)(CO)n1cc(C(=O)c2cncc(NC(=O)Cn3cc(C(F)(F)F)nn3)c2)c2cnc(N)nc21` [Example 54, N-(5-{[2-Amino-7-(2-hydroxy-1,1-dimethylethyl)-7H-pyrrolo[2,3-d]pyrimidin-5-yl]carbonyl}pyridin-3-yl)-2-[4-(trifluoromethyl)-1H-1,2,3-triazol-1-yl]acetamide], the pIC50 was 6.43 at TRKA [1], 8.17 on TRKA [2] and 6.76 against TRKB [3]. Further, the Papp B→A at MDR1 (MDCK-MDR1, MDCK-MDR1, B to A) was 1.3 ×10⁻⁶ cm/s. Besides, on MDR1, the Papp A→B was less than 1 ×10⁻⁶ cm/s.

The values are drawn from patent US8846698B2, “Pyrrolo[2,3-d]pyrimidine tropomysin-related kinase inhibitors” (Pfizer Limited, priority 2011, dated 2014).
